In assay [1] the test system is vector-only (V/O) CHO-K1 cells. As to the kind of experiment: Cellular end-point fluorescence calcium mobilization assay, vector-only control cells. The class given is cell-based. To be noted: 10 µM peptide, Fluo-8, 29 °C, 60 s, 4 technical replicates. The source says: (§1) Three peptides were used in this study. These included: 1) the ligand for the endogenous tick kinin receptor from Rhipicephalus sanguineus, Rhisa-kinin 8 peptide of sequence GTGEDQAFSPWGamide (Rhisa-K-8; RK8; of identical sequence to Rhimi-K-8 in Rhipicephalus microplus)[48], 2) the same peptide but fluorescently labeled at the N-terminus with tetramethylrhodamine (TMR) a red fluorescent dye, designated TMR-Rhisa-K-8 (TMR-RK8), and 3) a labeled peptide synthesized with the scrambled sequence of the kinin ligand, designated TMR-Scrambled. The sequence of TMR-RK8 was TMR-C-GTGEDQAFSPWGamide). The TMR-Scrambled kinin (TMR-C-GTQWGPGFEADSamide) served as a negative control for tissue labeling. […]
A fluorescence-based intracellular calcium mobilization end-point assay described by Xiong, et al.[50] was used to confirm the activity of the TMR-labeled RK8 peptide on a cell line expressing the tick kinin receptor. […] The calcium fluorescence signal was detected by a CLARIOstar (BMG LABTECH, Chicago, IL, United States) plate reader set to read at the fluorescence plate-mode with excitation and emission wavelengths of 490 and 525 nm at 29 °C. Calcium responses were read immediately after the addition of 10 µL of either TMR-RK8, unlabeled RK8, or blank solvent (1% DMSO in HBSS). […]
A general note: Calcium assays in cells follow changes in intracellular calcium, usually with a dye or a luminescent sensor.

Assay [2] relates to vector-only (V/O) CHO-K1 cells. As to the kind of experiment: Fluorescence microscopy validation of labeled peptide specificity on live vector-only cells. Format: binding. The conditions noted are these: 1 µM TMR-RK8, 5 min at room temperature, HBSS; Zeiss Axio Observer, BPTmX channel. As for the experimental part: (§2) BMLK3 and vector-only cells were cultured in selective media (F-12K medium containing 10% fetal bovine serum and 800 µg/mL-1 of G418 sulfate), cells were seeded in […] (CELLSTAR®, Greiner Bio-One®, Monroe, NC USA) at 20,000 cells per well and were incubated overnight. The next assay, the cell culture medium was removed, and cells were rinsed twice with 200 µl DPBS, and 180 µl of HBSS buffer was added into each well. The peptide stock solutions were prepared in 1% DMSO in HBSS at 100 µM. TMR-RK8 (20 µl) was added into each well and incubated with the cells for 5 min at room temperature. The medium was then removed with a pipette and the cells were rinsed twice with 200 µl HBSS, and DAPI (VECTASHIELD® H-1200, Vector Laboratories) was added (20 µl of 0.15 µg/ml) for visualizing the cell nuclei. Cells were rinsed twice with 200 µl of HBSS, and finally 180 µl HBSS per well was added.
(§3) The cells were immediately imaged under a Zeiss Axio Observer® inverted fluorescence microscope. The exposure time for the Bodipy-Tetramethylrhodamine-X (BPTmX) fluorescence channel was the same for BMLK3 cells and V/O cells. DAPI imaging was done subsequently using the same focal height as the BPTmx channel.

For assay [3], the system named is tick kinin receptor (CHO-K1 BMLK3 cells). As to the kind of experiment: Fluorescence microscopy validation of labeled peptide specificity on live BMLK3 cells. The class given is binding, Rhipicephalus microplus. As for the experimental part:
as §2, §3

Assay [4] deals with vector-only (V/O) CHO-K1 cells. Nature of the assay: Confocal visualization on live vector-only cells with fluorescently labeled kinin peptide. To be noted: 10 µM labeled peptide, 1 min, HBSS, confocal Leica SP8. Format: binding.
Excerpt: as §1
The BMLK3 and V/O cells (5000–10,000 cells) were seeded separately in 200 µL selective media onto the two chambers of the cover glass (Lab-Tek Chambered Coverglass, 4.2 cm^2 area, #1.0 German borosilicate glass, sterile, Cat # 155,380, Thermo Fisher Scientific Inc., Walthams, MA) and grown in the incubator overnight at 37 °C and 5% CO2. The next day, cells would be ready for fluorescent labeling: the selective media was replaced with 200 µL HBSS to rinse the cells. […] Images were analyzed and computer-colored using Fiji/ImageJ (National Institutes of Health, Bethesda, MD). […]

As to TMR-C-GTGEDQAFSPWGamide [TMR-RK8], the “calcium fluorescence response of vector-only cells (in words)” value in assay [1] is “invariable background fluorescence”. The “labeling of vector-only cells, Fig. S1 (in words)” value in assay [2] is listed as “only observed in the BLMK3 cells”. The “labeling of BMLK3 cells, Fig. S1 (in words)” value in assay [3] (1 µM TMR-RK8, 5 min at room temperature, HBSS, Zeiss Axio Observer, BPTmX channel) is reported as “only observed in the BLMK3 cells”. Besides, the “receptor visualization across multiple BMLK3 cells (in words)” value in assay [3] (Figs. S1 and S2, BMLK3 cells) is “consistently visualized with TMR-RK8 across multiple BMLK3 cells”. In addition, the “labeling of vector-only cells (in words)” value in assay [4] was “not labeled by either peptide”.

The record behind these values is article PMC11091117, “A fluorescently-tagged tick kinin neuropeptide triggers peristalsis and labels tick midgut muscles” (Scientific Reports, 2024).
